Results from patent US20100311748A1, “HETEROCYCLIC AMIDES USEFUL FOR THE TREATMENT OF CANCER AND PSORIASIS” (ASTRAZENECA AB, priority 2007, published 2010).

What follows are compounds tested on Hedgehog pathway (assay: Hedgehog Pathway Cellular Differentiation Assay (alkaline phosphatase production in C3H10T1/2 cells with Shh ligand)). Settings: Mus musculus, C3H 10T1/2, 3 μM compound, Shh ligand conditioned media, 72 h, alkaline phosphatase.
Type: cell-based
Experimental: Hedgehog Pathway Cellular Differentiation Assay The ability of compounds of the invention to inhibit the Hedgehog pathway can be determined by the following cell differentiation assay. C3H10T1/2 cells were plated into 384 well plates at a concentration of 5000 cells/well in DMEM/10% FBS. The following day the media was changed to 20% conditioned media (low serum media DMEM/2% FBS+Shh ligand). Compounds were solubilized in 100% DMSO to a concentration of 10 mM and then serially diluted three fold in 100% DMSO. The highest concentration in the cell plate was 30 μM and the lowest was 3 nM. The compounds were then added to the cells. Cell plates were incubated with the compound for 72 h and then assayed for alkaline phosphatase production using pNp as a substrate. Briefly, after 72 h of incubation, the media was aspirated from the cells and washed with 30 μl of PBS. PBS was aspirated off the cells and 15 μl of 1×RIPA cell lysis buffer is added on to the cells. The cell plates are then incubated at −80° C. for 30 minutes to insure proper cell lysis. The plates were then thawed back to RT. The substrate solution containing pNp at 1 mg/mL in diethanolamine buffer pH 9.8 was then added onto the lysed cells. The plates were incubated at 30° C. for color development and read at an absorbance of 405 nm. The percent inhibition and IC50 value was then calculated from the absorbance data using standard procedures.
With `Cc1cc(Cl)c(-c2cn(C)c(C)n2)cc1NC(=O)c1ccc(OCc2ccccn2)cc1` [Example 77, N-[4-chloro-5-(1,2-dimethyl-1H-imidazol-4-yl)-2-methylphenyl]-4-(pyridin-2-ylmethoxy)benzamide] the inhibition at 3 µM was 86.1%.
With `Cc1ccc(-c2nccn2C)cc1NC(=O)c1ccc(OCc2ccccc2C#N)cc1` [Example 51, 4-[(2-cyanophenyl)methoxy]-N-[2-methyl-5-(1-methylimidazol-2-yl)phenyl]benzamide] the inhibition at 3 µM was 82.1%.
`Cc1cc(C)c(-c2ncn(C)c2CO)cc1NC(=O)c1ccc(OCc2ccccn2)cc1` [Example 79, N-(5-(5-(hydroxymethyl)-1-methyl-1H-imidazol-4-yl)-2,4-dimethylphenyl)-4-(pyridin-2-ylmethoxy)benzamide] was tested, and the inhibition at 3 µM was 85.9%.
`Cc1ccc(-c2[nH]cnc2C)cc1NC(=O)c1ccc(OCc2ccccn2)cc1` [Example 27, N-[2-methyl-5-(4-methyl-1H-imidazol-5-yl)phenyl]-4-(pyridin-2-ylmethoxy)benzamide] was tested, and the inhibition at 3 µM was 76.6%.
In the case of `Cc1cc(C)c(-c2ncc(C)n2C)cc1NC(=O)c1ccc(OCc2ccccn2)cc1` [Example 69, N-[5-(1,5-dimethyl-1H-imidazol-2-yl)-2,4-dimethylphenyl]-4-(pyridin-2-ylmethoxy)benzamide], the inhibition at 3 µM is reported as 83.9%.
`Cc1cc(C)c(-c2cn(C)cn2)cc1NC(=O)c1ccc(OCc2ccccn2)cn1` [Example 113, N-(2,4-dimethyl-5-(1-methyl-1H-imidazol-4-yl)phenyl)-5-(pyridin-2-ylmethoxy)picolinamide] showed an inhibition at 3 µM of 84.7%.
`Cc1ccc(-c2nc(-c3cccnc3)c[nH]2)cc1NC(=O)c1ccc(OCc2ccccn2)cc1` [Example 84, N-[2-methyl-5-(4-pyridin-3-yl-1H-imidazol-2-yl)phenyl]-4-(pyridin-2-ylmethoxy)benzamide] gave an inhibition at 3 µM of 79.6%.
For `Cc1ccc(-c2nccs2)cc1NC(=O)c1ccc(OCc2ccccn2)cc1` [Example 16, N-(2-methyl-5-1,3-thiazol-2-yl-phenyl)-4-(pyridin-2-ylmethoxy)benzamide], the inhibition at 3 µM was 68.6%.
`Cc1ccc(-c2nc(-c3ccc(N4CCCC4)cc3)c[nH]2)cc1NC(=O)c1ccc(OCc2ccccn2)cc1` [Example 83, N-{2-methyl-5-[4-(4-pyrrolidin-1-ylphenyl)-1H-imidazol-2-yl]phenyl}-4-(pyridin-2-ylmethoxy)benzamide] gave an inhibition at 3 µM of 15.1%.
In the case of `Cc1ccc(-c2ncc[nH]2)cc1NC(=O)c1ccc(OCc2ncccc2C#N)cc1` [Example 136, N-(5-(1H-imidazol-2-yl)-2-methylphenyl)-4-((3-cyanopyridin-2-yl)methoxy)benzamide], the inhibition at 3 µM is reported as 77%.
Compound `Cc1ccc(-c2nc(-c3nccs3)c[nH]2)cc1NC(=O)c1ccc(OCc2ccccn2)cc1` [Example 82, N-{2-methyl-5-[4-(1,3-thiazol-2-yl)-1H-imidazol-2-yl]phenyl}-4-(pyridin-2-ylmethoxy)benzamide] has an inhibition at 3 µM of 68.6%.
With `Cc1ccc(-c2ncc[nH]2)cc1NC(=O)c1ccc(OCc2cc(OCCN(C)C)ccn2)cc1` [Example 94, 4-({4-[2-(dimethylamino)ethoxy]pyridin-2-yl}methoxy)-N-[5-(1H-imidazol-2-yl)-2-methylphenyl]benzamide] the inhibition at 3 µM was 56.7%.
Work on `Cc1ccc(-c2ncc[nH]2)cc1NC(=O)c1ccc(OCC2CCCCN2C(=O)OC(C)(C)C)cc1` (stereo not drawn) [Example 141, tert-butyl 2-((4-(5-(1H-imidazol-2-yl)-2-methylphenylcarbamoyl)phenoxy)methyl)piperidine-1-carboxylate] yielded an inhibition at 3 µM of 85.3%.
In the case of `COc1ccccc1COc1ccc(C(=O)Nc2cc(-c3ncc[nH]3)ccc2C)cc1` [Example 63, N-[5-(1H-imidazol-2-yl)-2-methylphenyl]-4-[(2-methoxybenzyl)oxy]benzamide], the inhibition at 3 µM is reported as 79.8%.
Compound `Cc1ccc(-c2ncc[nH]2)cc1NC(=O)c1cccc(C#N)c1` [Example 146, 3-cyano-N-[5-(1H-imidazol-2-yl)-2-methyl-phenyl]benzamide] has an inhibition at 3 µM of 17.1%.
